According to patent US8512940B2, “Method for preserving liver in a solution comprising dibutyryl cAMP” (Otsuka Pharmaceutical Factory, Inc., priority 2005, dated 2013):

Test system: liver grafts
Format: in vivo
Settings: content in ET-K+db-cAMP (2 mM) preservation solution, liver transplanted without final rinsing
Protocol: Eight-week-old inbred male Lewis rat (SLC) was housed in a chip-bedded cage at room temperature under a 12 hr light/dark cycle and given free access to a standard chow diet and water before operation.
Group I: UW solution group (n=8), Group II: New ET-K solution group (n=6), Group III: modified New ET-K solution group (n=8). The liver was preserved under cooling in each preservation solution for 24 hr, and then syngeneic liver transplantation was performed. Rats were randomly assigned to each group.
In the UW group, the blood in the donor liver portal vein blood vessel was first replaced with 10 ml of Ringer's solution, and then the blood vessel was perfused with 10 ml of UW solution. In the New ET-K group and the modified New ET-K group, the blood in the donor liver portal vein blood vessel was directly replaced with 20 ml of each preservation solution. In all groups, the perfusion with the preservation solution was performed at a pressure of 15 cmH2O. Then, liver grafts were preserved in respective preservation solutions at 4° C. for 24 hr. […]
In the same manner as in Example 1, syngenic liver transplantation was performed on 8-week-old inbred male Lewis rats (SLC), and the survival rate after transplantation of the liver preserved in preservation solutions containing various concentrations of nitroglycerin (NTG) was evaluated. […]

## O=[N+]([O-])OCC(CO[N+](=O)[O-])O[N+](=O)[O-] [nitroglycerin]
  nitroglycerin content at which toxicity due to nitroglycerin is hardly expressed: not more than 0.0044 mM
